The source of these data is patent US11369587B2, “Injectable pharmaceutical composition of tecovirimat and preparation method thereof” (priority 2016, dated 2022).

For orientation: solubility means the concentration that dissolves in the medium under given conditions.

For data set [1] the following is noted: 20%-40% (w/v) hydroxypropyl-cyclodextrin (HP-3-CD) at 37° C.; cited from earlier work.
The format of data set [2] is physicochemical. As to conditions: ternary solubilizing composition of Tecovirimat, cyclodextrin and Meglumine. How it is done:
An excessive amount of Tecovirimat was added to an aqueous solution comprising meglumine and cyclodextrin at a different ratio to form a suspension. The suspension was placed in a constant-temperature incubation shaker, and was shaken at a temperature of 25±1° C., 37±1° C. and 60±1° C. for 72 h, respectively. After reaching equilibrium, the suspension was filtered through a 0.45 μm hydrophilic filter membrane to obtain a filtrate. After the filtrate was properly diluted with an acetonitrile-water (50:50, v/v) solution, the absorbance was measured at 224 nm, and the solubility of Tecovirimat was calculated. The corresponding solubility curve was plotted by using the solubility of the drug as the ordinate, and using the concentration of cyclodextrin and/or meglumine as the abscissa.

Regarding `O=C(NN1C(=O)[C@@H]2[C@@H]3C=C[C@@H]([C@H]4C[C@@H]34)[C@@H]2C1=O)c1ccc(C(F)(F)F)cc1` [Tecovirimat, 4-trifluoromethyl-N-(3,3a,4,4a,5,5a,6,6a-octahydro-1,3-dioxo-4,6-ethenocycloprop[f]isoindol-2(1H)-yl)-benzamide], the solubility in data set [1] was 1500 to 11000 µg/mL. In addition, the maximal solubility entry in data set [2] was “up to 152 mg/ml”.
